# Results filed as inconclusive are left out. Calls of active or inactive are those of the source. No rule for the calls is given here.
# Tested on: S. typhimurium/E. coli reverse mutation, colony counts
# Assay: Bacterial reverse mutation test (aka Ames test) summary data
# How it was run: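 S. typhimurium his⁻ strains (TA97–TA1538) and E. coli WP2 uvrA pKM101 trp⁻, dosed over a range with or without rat, hamster or mouse liver S9. Preincubated 20 min at 37° C (or plate incorporation), plated in agar, incubated usually two days. Revertant colonies counted against negative controls.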
row,SMILES,outcome
1,COCOC,inactive; negative
2,C=Cc1ccccc1Cl,inactive; negative
3,ClC(Cl)=C(Cl)Cl,inactive; negative
4,CC1=CC(=O)CC(C)(C)C1,inactive; negative
5,CCC(Br)(CC)C(=O)NC(N)=O,inactive; negative
6,Oc1cc(Cl)c(Cl)cc1Cl,inactive; negative
7,OCCCBr,active; positive
8,Cc1ccc(N)c([N+](=O)[O-])c1,active; positive
9,Oc1ccc2ccccc2c1N=Nc1ccccc1,active; positive
10,Cn1c(-c2ccccc2)c(N=Nc2scc[n+]2C)c2ccccc21,active; positive
11,COC(=O)c1ccccc1O,active; weakly positive
12,OCCN1CN(CCO)CN(CCO)C1,active; positive
13,Oc1ccc(Cl)cc1Cc1cc(Cl)ccc1O,active; positive
14,c1ccc2[nH]c(-c3cscn3)nc2c1,active; positive
15,COC(=O)CCCCC(=O)OC,inactive; negative
16,CC[Si](Cl)(Cl)CC,inactive; negative
17,C=CC1CC=CCC1 (centres undefined),inactive; negative
18,O=C1OC2(c3ccc(O)cc3Oc3cc(O)ccc32)c2ccccc21,inactive; negative
19,CCOc1cccc(N)c1,active; weakly positive
20,O=[N+]([O-])C(Br)(Br)Br,active; weakly positive
21,[K+],inactive; negative
22,ClC=CCCl,active; positive
23,CCCCCCC[CH2][Sn]1([CH2]CCCCCCC)[O]C(=O)C=CC(=O)[O]1,inactive; negative

row,SMILES,outcome
1,Cc1ccc2c(ccc3ccccc32)c1,active; positive
2,NCCCNCCCN,inactive; negative
3,CN(C)c1cccc(O)c1,active; positive
4,Nc1cc(Cl)cc(C(=O)O)c1Cl,active; positive
5,C=CC(=C)CCC=C(C)C,inactive; negative
6,O=C(CO)CO,active; positive
7,N#CCC#N,inactive; negative
8,O=C(OCC1CO1)C1CCCCC1C(=O)OCC1CO1 (centres undefined),active; positive
9,CSCCC=O,inactive; negative
10,CBr,active; positive
11,O=C(O)C(F)(F)C(F)(F)C(F)(F)C(F)(F)C(F)(F)F,inactive; negative
12,Nc1ccc(C(=O)O)cc1,inactive; negative
13,COc1ccc(N=[N+]([O-])c2ccc(OC)cc2)cc1,active; positive
14,O=C1c2c(O)ccc(O)c2C(=O)c2c(NCCO)ccc(NCCO)c21,active; positive
15,OC(O)C(Cl)(Cl)Cl,active; positive
16,O=Cc1ccccc1,inactive; negative
17,C=CCc1ccc2c(c1)OCO2,inactive; negative
18,C1CCCCC1,inactive; negative
19,C=CC(=O)OCC(CO)(COC(=O)C=C)COC(=O)C=C,inactive; negative
20,Cc1cccc(C)c1O,inactive; negative
21,ClC(Br)Br,active; weakly positive
22,C=C1C/C(=C/C)C(=O)O[C@@H]2CCN3CC=C(COC(=O)[C@@]1(O)CO)[C@H]23,active; positive
23,CC(CN1c2ccccc2Sc2ccccc21)N(C)C (centres undefined),inactive; negative

row,SMILES,outcome
1,C[Si]12OCCN(CCO1)CCO2,inactive; negative
2,C[C@H](Cn1cnc2c(N)ncnc21)OCP(=O)(O)O,active; positive
3,Oc1ccc(Cl)cc1,inactive; negative
4,CCc1ccccc1N,inactive; negative
5,CCC[CH2][Sn]([CH2]CCC)([CH2]CCC)[O][Sn]([CH2]CCC)([CH2]CCC)[CH2]CCC,inactive; negative
6,c1ccc(P(c2ccccc2)c2ccccc2)cc1,inactive; negative
7,O=[N+]([O-])c1cccc(O)c1,active; weakly positive
8,NC(=O)NNC(N)=O,inactive; negative
9,CCCCCCCCC=O,inactive; negative
10,O=S1(=O)CC=CC1,inactive; negative
11,O=[N+]([O-])c1cc(Cl)c(Cl)cc1Cl,active; positive
12,Nc1ccc(O)c([N+](=O)[O-])c1,active; positive
13,C=CCSSCCC,inactive; negative
14,CCO,inactive; negative
15,O=C1O[C@H]([C@H](O)CO)C(O)=C1O,active; weakly positive
16,COCC1CO1 (centres undefined),active; positive
17,C=C(C#N)C(=O)OCC,inactive; negative
18,ClC=CCl,inactive; negative
19,Nc1ncn([C@@H]2O[C@H](CO)[C@@H](O)[C@H]2O)c(=O)n1,active; positive
20,C=CCc1ccc(OC)cc1,inactive; negative
21,CC(CO)(CO)[N+](=O)[O-],inactive; negative
22,Cc1ccc(N=Nc2c(O)c(S(=O)(=O)O)cc3ccc(S(=O)(=O)O)cc23)c(C)c1,active; weakly positive
23,O=c1c(-c2ccc(O)cc2)coc2cc(O)cc(O)c12,active; positive
